A short description of data set [1]: Preclinical observation on doubled i.p. dose. The data set is classed as in vivo. To be noted: mice; one week of continuing administration. The protocol:
Furthermore, the medicament is administered in “a therapeutically effective amount,” i.e., in a single dose or in multiple, divided subdoses at a suitable interval, e.g., two, three or more subdoses over a day or another appropriate schedule, to a prescribed total amount of active, such that metastasis is inhibited in the subject. Like the dose schedule, the effective amount of medicament will depend on a variety of factors, including the age and condition of the subject, the nature and extent of the cancerous condition, any contraindications, and the pharmacokinetic and pharmacodynamic characteristics of the medicament. For example, based on an accepted guide to animal-to-human dose conversion, see Nair R. Jacob, J. Basic. Clin. Pharm.

For data set [2], the system named is TIF1A-POL1 interaction. Description: Co-immunoprecipitation of TIF1A and POL1. The data set is classed as cell-based. Particulars: LN229 cells; 10 μg/mL. Here is the method:
(§1) SELH is localized in the nucleolus, which is a sensor of oxidative stress. Yang et al., Nature communications 7: 13599 (2016); Novoselov et al., J. Biol. Chem. 282: 11960 (2007). […] JNK2 activation by oxidative stress inactivated RNA polymerase I (POL1) transcription factor TIF1A in the nucleoli to down-regulate rRNA synthesis. Mayer et al., Genes Dev. 19: 933 (2005). To investigate whether the ribosomal biogenesis was disrupted by ISP I, pre-rRNA transcription was evaluated using real-time RT-PCR analysis in LN229 cells. […] To examine the mechanisms by which ISP I disrupts POL1 transcription, the inventors initially evaluated JNK2 activity and the overall state of the transcription machinery in ISP I-treated LN229 cells.
For co-immunoprecipitation analysis, LN229 wild-type cells, LN229 cells treated with 10 μg/mL of ISP I, and LN229 cells transfected with SELH siRNA for 24 hours were harvested, and total protein was prepared from cells using Dynabeads Co-Immunoprecipitation Kit (ThermoFisher) according to the manufacturer's protocol. Immunoblotting then was performed using anti-SELH antibody.

Data set [3] has as its system JNK2, POL1, TIF1A. Description: Western blot of JNK2 phosphorylation, POL1 and TIF1A. To be noted: LN229 cells. The data set is classed as cell-based. Here is the method: as §1
Western blotting was performed to detect the protein expression level of SELH, NRF2 and γH2AX regulated by ISP I. The cells were lysed by RIPA buffer from ThermoFisher Scientific, and the concentration was measured using DC Protein Assay, a Bio-Rad product. Equal amounts of protein of each sample were loaded for gel electrophoresis and were transferred to nitrocellulose membrane, blocked and incubated overnight at 4° C. with primary antibodies. Then the membranes were washed with TBST (3 times, 10 min each). Exposure, imaging, and data analysis were done using a KwikQuant Imager system, a product of Kindle Biosciences (Greenwich, Conn. USA). […]
A general note: Immunoblotting shows a protein as a band on a membrane.

Data set [4] concerns U2OS cell line. Briefly: R-loop and EdU staining in U2OS cells. To be noted: 6 hours. The format is cell-based, Human. The text has this: In order to assess ISP I's effect within the nuclear compartment, the inventors evaluated DNA-RNA R-loop formation within ISP I-treated Human Bone Osteosarcoma Epithelial Cells (U2OS cell line). R-loops are DNA-RNA hybrid structures composed of a displaced single-stranded DNA hybridized with the nascent RNA transcript. Santo-Pereira et al., Nat. Rev. Genet. 16: 583 (2015). […] Teng et al., Nature communications 9: 4115 (2018).
U2OS cells obtained from ATCC were transfected with plasmid containing RNaseH1 construct mutated at D210N (Addgene #111904) and WKKD (Addgene #111905). Stable monoclonal cells were selected with hygromycin.
EdU and R-loop staining for U2OS cells was conducted as follows: U2OS cells were incubated with EdU for 20 min and washed with a brief PBS wash. These cells were then pre-extracted in PBS-T buffer (0.2% Triton X-100 in 1×PBS, phenylmethylsulphonylfluoride [PMSF], protease inhibitor cocktail (Sigma, P8340) and phosphatase inhibitor cocktail (Roche, P4906845001)) for 3 min on ice and washed with a brief PBS wash. Pre-extracted cells were fixed using 2.0% paraformaldehyde (PFA) solution in PBS. EdU staining was performed according to the manufacturer's instructions. Primary antibody staining was performed as follows: anti-V5-tag (Santacruz, sc-271926, 1:250 dilution). Secondary antibody staining was performed as follows: Alexa 568 conjugated anti-mouse IgG (1:500, ThermoFisher Scientific). A Zeiss LSM710 confocal microscopy was used for imaging. Images where scored in ZenBlue software by counting non-nucleolar R-loops foci, where nucleoli were masked based on intensity and size of R-loop staining and number of foci counted in the rest of the nucleus.

For data set [5], the system named is LN229 and U251 cells. Briefly: Annexin V apoptosis flow cytometry, glioblastoma cells. The format is cell-based. Here is the method:
To assess the cytotoxicity of ISPs I, II and III, five glioblastoma cell lines, T98G, U118, A172, LN229 and U251, were treated with serial doses of each ISP, respectively, for 48 hours. Cell viability of these cell lines were evaluated by CCK8 assay, and the 50% inhibitory concentration (IC50) was calculated (FIG. 2A, B and FIG. 3). […] Cell distribution in each phase of the cell cycle was assessed in LN229 and U251 cells by flow cytometry, followed by EdU and DAPI staining.
Cells (2×10^5) were plated in 6-well plates and treated with different concentrations of ISP I. Then the cells were harvested and washed three times with PBS. Cells were resuspended in 100 μl binding buffer and were incubated with 5 μl APC-conjugated Annexin V working solution, a product of BD bioscience (Franklin Lakes, N.J. USA), and 1 μl propidium iodide (PI), a product of Invitrogen, for 15 min at room temperature with protection from light. Data acquisition and quantification were processed with BD LSRFortessa flow cytometer, using FlowJo software (Ashland, Oreg. USA).

Data set [6] relates to pre-rRNA (POL1 transcript). Briefly: pre-rRNA transcription, real-time RT-PCR. Particulars: LN229 cells. The format is cell-based. Here is the method:
as §1

“Also recorded” adds a separate entry of the source.

On to `COC1C(O)CC(=O)OC(C)CC=CC=CC(OC2CCC(N(C)C)C(C)O2)C(C)CC(CC=O)C1OC1OC(C)C(OC2CC(C)(O)C(OC(=O)CC(C)C)C(C)O2)C(N(C)C)C1O` (stereo not shown) [ISP I, 4″-isolvalerylspiramycin I], for which, in data set [1], the “adverse effect on doubling of the i.p. dose” value was “severe diarrhea”. Further, the “TIF1A-POL1 interaction (co-immunoprecipitation)” value in data set [2] is “interaction was disrupted by ISP I treatment”. Also, in data set [3], the “JNK phosphorylation (western blot)” value is “increased JNK2 phosphorylation; also recorded: JNK1 phosphorylation increased”; the “POL1 and TIF1A expression (western blot)” value is “slightly reducing POL1 and TIF1A expression in a dose-dependent manner; also recorded: expression of POL1 and TIF1A slightly decreased”. For the same molecule, in data set [4], the “EdU incorporation (DNA replication)” value is given as “reduced EdU (DNA replication marker) incorporation into DNA in a dose-dependent manner” and the R-loop formation result is “increased R-loop accumulation”. In data set [4] (listed as ISP 1), the “EdU incorporation (DNA replication)” value is recorded as “reduction in EdU incorporation” and the R-loop formation entry is on record as “increase of R-Loops formation”. In data set [5], the “apoptosis (Annexin V stain)” value is given as “induced a dose-dependent apoptosis”. Further, in data set [6], the pre-rRNA transcription entry is given as “decreased pre-rRNA transcription in a dose-dependent manner; also recorded: reduced Pre-rRNA (PoL1 transcript) in a dose-dependent manner”.
